pIC50: −log10 of the molar value. Values after ≈ are worked out from the molar mass of the structure shown. Like-named read-outs stand apart in the source and are kept apart here.
Assays:
[1] = test system: Acinetobacter baumannii ATCC 1605; assay: Micro-well dilution assay (MIC); format: cell-based; settings: for MIC: ATCC1605
Procedure: (§1) The bacteria employed for evaluation included Acinetobacter baumannii ATCC 1605, Enterococcus faecalis ATCC 49452, Pseudomonas aeruginosa ATCC 9027, and Staphylococcus aureus MRSA ATCC 43300. These strains were sourced from the Molecular Biology and Genetics Laboratory at Erzurum Technical University. They were immersed in Mueller-Hinton Broth (MHB) and then incubated at a temperature of 37 °C for a duration of 16–24 h.
(§2) The synthesised ureas’ minimum inhibitory concentrations (MICs) against the bacterial samples were ascertained using the microdilution broth technique. Utilising a method of twofold serial dilutions, the ureas were diluted to concentrations spanning from […]. The bacterial turbidity was set to match the 0.5 McFarland standard. In the 96-well plates, each well received 100 μl of MHB and 5 μl of the bacteria being tested. For the negative control, 195 μl of MHB and 5 μl of the bacterial sample were added. The plate was then covered with a sterile seal and allowed to incubate for 24 h at a temperature of 37 °C. Post incubation, the growth of the bacteria was assessed at 600 nm using the Fluoroskan Ascent® FL. The MIC represented the smallest amount of the chemical that effectively halted bacterial growth. This procedure was conducted three times.

[2] = test system: Pseudomonas aeruginosa ATCC 9027; assay: Micro-well dilution assay (MIC); format: cell-based; settings: for MIC: ATCC9027
Procedure: as §1, §2

[3] = test system: Enterococcus faecalis ATCC 49452; assay: Micro-well dilution assay (MIC); format: cell-based; settings: for MIC: ATCC49452
Procedure: as §1, §2

[4] = test system: Staphylococcus aureus MRSA ATCC 43300; assay: Micro-well dilution assay (MIC); format: cell-based
Procedure: as §1, §2

[5] = test system: Acinetobacter baumannii ATCC 1605; assay: Disc diffusion method; format: cell-based; settings: for zone of inhibition at 250 µM: ATCC1605, 250 µM; for zone of inhibition at 250 µM / zone of inhibition at 500 µM / zone of inhibition at 1000 µM: read-out: Disc diffusion test, inhibitory zone diameter; for zone of inhibition at 500 µM: ATCC1605, 500 µM; for zone of inhibition at 1000 µM: ATCC1605, 1000 µM
Procedure: as §1
(§3) Bacteria were adjusted to a McFarland standardisation of 0.5, equivalent to a cell density of 1.5 × 10^8/ml, and were then introduced into MHB. Subsequently, a 100 μl volume of this bacterial mixture was spread onto Mueller-Hinton agar plates. Sterile empty discs were then treated with the formulated ureas at concentrations of 1000, 500, and 250 µM. Oflaxin ([…]) and netilmicin ([…]) were used as positive controls, while DMSO served as the negative control. The plates were then placed in an incubator at 37 °C for a period ranging from 24 to 72 h, depending on the optimal conditions. Post incubation, the diameter of the inhibition zones was gauged to determine the antibacterial efficacy. This entire process was replicated three times.

[6] = test system: Pseudomonas aeruginosa ATCC 9027; assay: Disc diffusion method; format: cell-based; settings: for zone of inhibition at 250 µM: ATCC9027, 250 µM; for zone of inhibition at 250 µM / zone of inhibition at 500 µM / zone of inhibition at 1000 µM: read-out: Disc diffusion test, inhibitory zone diameter; for zone of inhibition at 500 µM: ATCC9027, 500 µM; for zone of inhibition at 1000 µM: ATCC9027, 1000 µM
Procedure: as §1, §3

[7] = test system: Enterococcus faecalis ATCC 49452; assay: Disc diffusion method; format: cell-based; settings: for zone of inhibition at 500 µM: ATCC49452, 500 µM; for zone of inhibition at 1000 µM: ATCC49452, 1000 µM
Procedure: as §1, §3

[8] = test system: Staphylococcus aureus MRSA ATCC 43300; assay: Disc diffusion method; format: cell-based; settings: for Standard antibiotic disc, inhibitory zone diameter: Staphylococcus aureus MRSA; for zone of inhibition at 250 µM / zone of inhibition at 500 µM / zone of inhibition at 1000 µM: Staphylococcus aureus, read-out: Disc diffusion test, inhibitory zone diameter
Procedure: as §1, §3

[9] = test system: HeLa cells; settings: cited from earlier work
[10] = test system: SH-SY5Y cells; settings: cited from earlier work
[11] = WST-8 cytotoxicity assay; format: cell-based; settings: human, PCS-201-012 healthy primary dermal fibroblast cells, PCS-201-012 healthy fibroblast cells, WST-8, n = 4, read-out: Cytotoxic activity IC50
Procedure: (§4) The cells in culture were frequently sub-cultured, about 2–3 times weekly, until they reached a confluence of 80–90%. The experiments were organised into seven cell groups as follows: group I served as the control, while groups II through VII were pre-treated with varying dosages of the synthesised ureas (ranging from 12.5 µM to 500 µM). The cytotoxic potential of these ureas was assessed in vitro using the Cell Viability Detection Kit-8 (CVDK-8, Ecotech Biotechnology, Erzurum, Turkey), a method based on WST-8 quantification for human primary dermal fibroblasts and cervical cancer cells. Healthy fibroblast, HeLa, and SH-SY5Y cells were allocated in 96-well plates, with each well containing 5 × 10^3 cells in 100 µL of DMEM:F12 (supplemented with 1% penicillin/streptomycin and 10% FBS). After an overnight growth, these cells were exposed to specified concentrations of the synthesised ureas for a duration of 48 h at 37 °C in a 5% CO2 atmosphere. Cisplatin acted as the positive control with concentration gradients of 0–250 µM for HeLa cells and 0–20 µM for the SH-SY5Y cells. Post incubation, in sterile, dimly lit conditions, 10% WST-8 solution was added to every well and further incubated at 37 °C within 5% CO2 for another 3–4 h. The optical density of the 96-well plate was gauged at a 450 nm wavelength using a spectrophotometer (BioTek, EPOCH, Santa Clara, CA). The control group’s main purpose was to measure the absorbance of just the cells and the growth medium.

[12] = test system: SH-SY5Y cells; assay: WST-8 cytotoxicity assay; format: cell-based, human; settings: for pIC50: SH-SY5Y, 48 h, WST-8, n = 4, read-out: Cytotoxic activity IC50; for SI value (SH-SY5Y cells): IC50 PCS-201-012 fibroblasts / IC50 SH-SY5Y, n = 4
Procedure: as §4

[13] = test system: HeLa cells; assay: WST-8 cytotoxicity assay; format: cell-based, human; settings: for pIC50: Homo sapiens, HeLa cells, 48 h, WST-8, n = 4, read-out: Cytotoxic activity IC50; for SI value (HeLa cells): IC50 PCS-201-012 fibroblasts / IC50 HeLa, n = 4
Procedure: as §4

[14] = test system: PCS-201-012 cells; set-up: method as in PMID 27488500; settings: fibroblast cells (PCS-201-012 column), cisplatin; read-out: Cytotoxic activity IC50; cited from earlier work
[15] = test system: all tested bacterial strains; assay: Antibacterial activity (MIC) summarised over all tested bacterial strains; format: cell-based; settings: against the studied bacteria
Procedure: as §1
as §3, with “This entire process was replicated three times.” left out
The synthesised ureas’ minimum inhibitory concentrations (MICs) against the bacterial samples were ascertained using the microdilution broth technique. […] Post incubation, the growth of the bacteria was assessed at 600 nm using the Fluoroskan Ascent® FL. […]

[16] = WST-8 cytotoxicity assay; format: cell-based, human; settings: human, SH-SY5Y cells, SH-SY5Y, 48 h, read-out: Cell viability
Procedure: as §4

[17] = read-out: Cytotoxic activity IC50, melphalan control
[18] = read-out: Disc diffusion test, inhibitory zone diameter
[19] = read-out: Cytotoxic activity IC50, cisplatin positive control

Compound	MIC [1]	MIC [2]	MIC [3]	MIC [4]	zone of inhibition at 250 µM [5]	zone of inhibition at 500 µM [5]	zone of inhibition at 1000 µM [5]	zone of inhibition at 250 µM [6]	zone of inhibition at 500 µM [6]	zone of inhibition at 1000 µM [6]	zone of inhibition at 500 µM [7, 18]	zone of inhibition at 1000 µM [7, 18]	zone of inhibition at 500 µM [8]	zone of inhibition at 1000 µM [8]	IC50 at 48 h [11]	melting point	pIC50 ([12]; Homo sapiens)	SI value (SH-SY5Y cells) [12]	pIC50 [13]	SI value (HeLa cells) [13]	further results
CCN[C@@H]1C[C@H](N)[C@@H](O[C@H]2OC(CN)=CC[C@H]2N)[C@H](O)[C@H]1O[C@H]1OC[C@](C)(O)[C@H](NC)[C@H]1O [NET30, netilmycin, reference compound]	–	–	–	–	–	–	–	–	–	–	–	–	–	–	–	–	–	–	–	–	MIC of standard antibiotics [1]: 4 µg/mL; MIC of standard antibiotics [2]: 4 µg/mL; MIC of standard antibiotics [3]: 32 µg/mL; MIC of standard antibiotics [4]: 0.8 µg/mL; Standard antibiotic disc, inhibitory zone diameter ([5]; 30 μg/disc): 13 mm; Standard antibiotic disc, inhibitory zone diameter ([6]; 30 μg/disc): 16 mm; Standard antibiotic disc, inhibitory zone diameter ([7]; 30 μg/disc): 9 mm; Standard antibiotic disc, inhibitory zone diameter ([8]; 30 μg/disc): 21 mm
N[C@@H](Cc1ccc(N(CCCl)CCCl)cc1)C(=O)O [Melphalan, melphalan]	–	–	–	–	–	–	–	–	–	–	–	–	–	–	–	–	–	–	–	–	pIC50 [9, 17]: 4.21; pIC50 [10, 17]: 5.66
COc1cccc(CCNC(=O)NC2CCCc3c(OC)cccc32)c1 (stereo not shown) [Compound 16, 1-(5-Methoxy-1,2,3,4-tetrahydronaphthalen-1-yl)-3-(3-methoxyphenethyl)urea]	7.81 µM (≈ 2.77 µg/mL)	7.81 µM (≈ 2.77 µg/mL)	3.9 µM (≈ 1.38 µg/mL)	7.81 µM (≈ 2.77 µg/mL)	5 mm	10 mm	13 mm	7 mm	8 mm	10 mm	6 mm	7 mm	6 mm	13 mm	> 500 µM	155 to 157 °C	4.72	26.10	4.49	15.4	zone of inhibition at 250 µM [8]: 5 mm
COc1ccccc1CCNC(=O)NC1CCCc2c(OC)cccc21 (stereo not shown) [Compound 15, 1-(5-Methoxy-1,2,3,4-tetrahydronaphthalen-1-yl)-3-(2-methoxyphenethyl)urea]	–	15.6 µM (≈ 5.54 µg/mL)	–	15.6 µM (≈ 5.54 µg/mL)	–	–	–	5 mm	5 mm	5 mm	–	–	5 mm	6 mm	226 µM	174 to 176 °C	5.05	25.26	3.85	1.58	pIC50 [12]: 5.05
N.N.[Cl][Pt][Cl] [Cisplatin, cis-diammineplatinum(II) dichloride]	–	–	–	–	–	–	–	–	–	–	–	–	–	–	–	–	–	–	–	–	pIC50 [14]: < 4.00; pIC50 [9, 19]: < 4.30; pIC50 [10, 19]: 5.00
COc1cccc2c1CCCC2NC(=O)NCCc1ccccc1 (stereo not shown) [Compound 14, 1-(5-methoxy-1,2,3,4-tetrahydronaphthalen-1-yl)-3-phenethylurea]	–	–	–	–	–	–	–	–	–	–	–	–	–	–	7.9 µM	–	5.01	–	5.59	–	Antibacterial properties (in words) [15]: did not display any antibacterial properties; viability at 48 h, 12.5 µM ([16]; 12.5 µM): 25.5%; viability at 48 h, 25 µM ([16]; 25 µM): 8.4%; viability at 48 h, 50 µM ([16]; 50 µM): 4.68%; viability at 48 h, 100 µM ([16]; 100 µM): 4.87%; viability at 48 h, 300 µM ([16]; 300 µM): 3.77%; viability at 48 h, 500 µM ([16]; 500 µM): 1.67%
CC1COc2c(N3CCN(C)CC3)c(F)cc3c(=O)c(C(=O)O)cn1c23 (stereo not shown) [OFX, ofloxacin, reference compound]	–	–	–	–	–	–	–	–	–	–	–	–	–	–	–	–	–	–	–	–	MIC of standard antibiotics [1]: 0.5 µg/mL; MIC of standard antibiotics [2]: 11.4 µg/mL; MIC of standard antibiotics [3]: 2.5 µg/mL; MIC of standard antibiotics [4]: 1.2 µg/mL; Standard antibiotic disc, inhibitory zone diameter ([5]; 10 μg/disc): 16 mm; Standard antibiotic disc, inhibitory zone diameter ([6]; 10 μg/disc): 23 mm; Standard antibiotic disc, inhibitory zone diameter ([7]; 10 μg/disc): 11 mm; Standard antibiotic disc, inhibitory zone diameter ([8]; 10 μg/disc): 24 mm
COc1ccc(CCNC(=O)NC2CCCc3c(OC)cccc32)cc1 (stereo not shown) [Compound 18, 1-(5-Methoxy-1,2,3,4-tetrahydronaphthalen-1-yl)-3-(4-methoxyphenethyl)urea]	7.81 µM (≈ 2.77 µg/mL)	3.9 µM (≈ 1.38 µg/mL)	0.97 µM (≈ 0.344 µg/mL)	3.9 µM (≈ 1.38 µg/mL)	6 mm	10 mm	16 mm	9 mm	10 mm	15 mm	7 mm	13 mm	12 mm	15 mm	374 µM	150 to 152 °C	4.99	36.72	3.44	1.02	zone of inhibition at 250 µM ([7]; ATCC49452, 250 µM, read-out: Disc diffusion test, inhibitory zone diameter): 5 mm; zone of inhibition at 250 µM [8]: 5 mm
COc1ccc(CCNC(=O)NC2CCCc3c(OC)cccc32)cc1OC (stereo not shown) [Compound 17, 1-(3,4-Dimethoxyphenethyl)-3-(5-methoxy-1,2,3,4-tetrahydronaphthalen-1-yl)urea]	7.81 µM (≈ 3 µg/mL)	7.81 µM (≈ 3 µg/mL)	0.97 µM (≈ 0.373 µg/mL)	7.81 µM (≈ 3 µg/mL)	6 mm	8 mm	15 mm	7 mm	10 mm	10 mm	7 mm	10 mm	13 mm	14 mm	380 µM	168 to 170 °C	5.01	39.08	3.60	1.51	zone of inhibition at 250 µM [8]: 8 mm
